Key:
[1] = Retention after intraperitoneal injection in mice; assay type: in vivo, mouse
[2] = system: Ehrlich-Lettre Ascites carcinoma cells; assay: Efficacy study in mice inoculated with carcinoma cells; assay type: in vivo, mouse; details: 100 μCi i.p.
Method: In vivo studies were conducted to determine the distribution of Bi-212 produced using the above-noted process and to compare the Bi-212 distribution to the distribution of Pb-212 ferrous hydroxide in colloidal form. The in vivo studies were conducted using white, female New Zealand rabbits weighing about 4.5 kilograms ([…]) each. Studies were also conducted using rabbits to determine the toxicity levels, e.g., the maximum tolerated dose. Efficacy studies were conducted using 25 gram (gm) female Swiss-Webster mice inoculated with Ehrlich-Lettre Ascites carcinoma cells.
Efficacy studies were conducted using groups of five 25 gm female Swiss-Webster mice that were intraperitoneally inoculated with 10^6 Ehrlich-Lettre Ascites carcinoma cells. The mice were subsequently instilled with 100 μCi of Bi-212 in up to 1 cc normal saline 48 hours after inoculation with the Ehrlich-Lettre Ascites carcinoma cells. The mice were sacrificed at one-half hour, one hour and 3 hours after instillation with the Bi-212 solution. Control groups were inoculated with the Ehrlich-Lettre Ascites carcinoma cells only.

[3] = system: V-79 cells; assay: In vitro irradiation survival (clonogenic), monolayer; assay type: cell-based, Chinese hamster; details: V-79 monolayer
Method: In vitro studies were carried out using three well known cell lines, the cells from which were exposed to radiation from: (1) an X-ray source; (2) P-32 chromic phosphate; and (3) Bi-212 chloride. The three cell lines that were used are V-79, which is a Chinese hamster lung fibroblast, Ehrlich-Lettre Ascites carcinoma (ATCC CCL 77), which is an ascites producing -tumor, and NIH:OVCAR-3 (ATCC HTB 161), which is a human ovarian adenocarcinoma. These well known cell lines are predictive of what happens in vivo. The cells were grown as monolayers and into spheroid formations and subsequently irradiated, as described herein.
The V-79 cells were maintained under exponential growth conditions in minimal essential medium (MEM) supplemented with 10 percent fetal bovine serum. The Ehrlich-Lettre Ascites carcinoma cells were maintained in 90 percent NCTC 109 supplemented with 10 percent fetal bovine serum. The NIH:OVCAR-3 cells were maintained in RPMI 1640 and 10 percent fetal bovine serum.
Cells from each of the cell lines were irradiated by subjecting the cells to X-ray radiation, P-32, and Bi-212. The X-ray source that was used is a General Electric 250 kvp Maxitron, 26 […] (mA) (HVL 1.5 mm Cu) operated at a dose rate of 1.11 Greys per minute (Gy/min). The cells, in both monolayer and spheroid form were exposed at room temperature and then immediately plated for survival.
Cells in both monolayer and spheroid were exposed to P-32 chromic phosphate. The radiation dose to each sample was calculated as: […]
After exposure, the cells were washed in phosphate-buffered saline (PBS) and immediately plated for survival.
The cell lines were also irradiated using Bi-212. Bismuth-212 was eluted from a generator as described in the aforementioned patent to Atcher et al., which was a cation-exchange column supporting Ra-224, with 1 ml of 0.15 N HI, and the generator was purged with 2 ml of distilled deionized water. […] The filter was purged with 1 ml of distilled deionized water, and the radioactivity was assayed using a calibrated 3×3-in. […]
Cells were exposed over a period of four hours. The dose (D) per microCurie was calculated and corrected for decay as follows: [formula] where V=volume in milliliters, and […]
Following plating, survival measurements were taken for each of the irradiated cell samples. […] The plates were then stained with crystal violet and colonies greater than 50 cells were scored. The surviving fraction was then determined.
Intrinsic radiosensitivity (Do) was calculated from the survival curves. […] Relative biological effectiveness (RBE) was determined as the ratio of the absorbed dose of X-ray to that of alpha radiation to produce the same degree of biological effect.

[4] = Solubility of Bi-212 at various pH values (0.22 μ filter); assay type: physicochemical
Method: The solubility was measured by passing the solution through a 0.22 μ Nalgene® filter and measuring the activity of the resulting solution and the activity of the filter.

`[212Bi]` [Bi-212, bismuth-212] showed a Carcass ([1]; 1 min) of 88.3 % IA, a Urine ([1]; 1 min) of 0.025 % IA and a Carcass ([1]; 10 min) of 87.3 % IA. For the same compound, the Urine ([1]; 10 min) was 2.2 % IA, the Carcass ([1]; 16 min) was 66.8 % IA and the Stool ([1]; 16 min) was 0.20 % IA. For the same compound, the Urine ([1]; 16 min) was 2.9 % IA, the Carcass ([1]; 30 min) was 79.1 % IA and the Stool ([1]; 30 min) was 0.53 % IA. The Urine ([1]; 30 min) was 6.9 % IA, the Carcass ([1]; 61 min) was 68.5 % IA and the Stool ([1]; 61 min) was 1.3 % IA. It also gave a Urine ([1]; 61 min) of 15.9 % IA, a Carcass ([1]; 120 min) of 62.9 % IA and a Stool ([1]; 120 min) of 6.7 % IA. The Urine ([1]; 120 min) was 19.5 % IA, the Stool ([1]; 180 min) was 8.3 % IA and the Urine ([1]; 180 min) was 24.8 % IA. For the same compound, the Carcass ([1]; 180 min (3 hours)) was 61.4 % IA, the Median survival time ([2]; 48 hours after 10^6 cells, after treatment) was 82 days and the “Cure with no evidence of disease” value ([2]; 3 months later) was 40%. For the same compound, the “D0 (intrinsic radiosensitivity)” value ([3]; dose increment reducing survival to 37 percent) was 0.77 Gy, the “Relative biological effectiveness (RBE)” value ([3]; relative to X-ray) was 3.02 and the Maintained in solution ([4]; acidic pH) was “maintained in solution at an acidic pH value”. The Activity in solution ([4]; pH 6) was 5.55 mCi, the Activity on filter ([4]; pH 6) was 0.24 mCi and the “Percent activity in solution” value ([4]; pH 6) was 96%. For the same compound, the “Percent activity on filter” value ([4]; pH 6) was 4%, the Activity in solution ([4]; pH 7) was 3.24 mCi and the Activity on filter ([4]; pH 7) was 0.023 mCi. For the same compound, the “Percent activity in solution” value ([4]; pH 7) was 94%, the “Percent activity on filter” value ([4]; pH 7) was 6% and the Activity in solution ([4]; pH 8) was 1.90 mCi. The Activity on filter ([4]; pH 8) was 0.50 mCi, the “Percent activity in solution” value ([4]; pH 8) was 83% and the “Percent activity on filter” value ([4]; pH 8) was 17%. For the same compound, the Activity in solution ([4]; pH 9) was 0.65 mCi, the Activity on filter ([4]; pH 9) was 1.35 mCi and the “Percent activity in solution” value ([4]; pH 9) was 32%. The “Percent activity on filter” value ([4]; pH 9) was 68% and the “Solubility dependence on pH” value ([4]; radio-impurity-free solution) was “solubility increasing with a decrease in pH value”.

Source: patent US6126909A, “Process and apparatus for the production of BI-212 and a use thereof” (Arch Development Corporation, priority 1999, dated 2000)
